The values that follow come from patent US7528252B2, “Derivatives of triazoly-imidazopyridine useful as ligands of the adenosine A2a receptor and their use as medicaments” (Sigma-Tau Industrie Farmaceutiche Riunite S.p.A., priority 2002, dated 2009).

Common to all, as to format: in vivo
The subject of one assay is CD1 male mice. Put plainly: Effects on spontaneous motor activity in mice. The settings on record: for Horizontal activity / Vertical activity: mean ± s.e. As to the method:
For this study, type CD1 male mice (n=8) were used. The effects of the products under study and of the reference compounds were evaluated using an apparatus consisting of a Plexiglas cage (40 cm×40 cm) surrounded by a series of photocells which monitor the movements of the animals placed inside, connected a computerised system, through which, the signals are collected and later elaborated.
Tests were carried out, after endoperitoneal administration of the products. 15 minutes after treatment, the treated animals, alternating with the controls, were placed inside the cage so as to record their spontaneous movements over a total period of 45 minutes broken down into two observation intervals (15′-45′ and 45′-60′, with respect to the time after treatment).
To examine the possible effects of the compounds studied on motor activity, the following parameters were considered: horizontal activity, vertical activity: total distance.
Except for CGS 21680 (reference compound, described in EP 0 277 917, Ciba-Geigy) which was dissolved in 0.9% NaCl, the products studied were solubilised in DMSO and then diluted in Cremofor EL and 0.9% NaCl (final concentrations: DMSO 15%, Cremofor EL 15%, NaCl 0.9%.

The next assay relates to mice. Put plainly: Capacity to antagonise Haloperidol-induced catalepsy. The settings on record: orally 10 mg/kg and 20 mg/kg; Haloperidol 4 mg/Kg endoperitoneal. As for the experimental part: 10 CD1 male mice were used per group. For this test, a steel bar, 10 cm long, was placed at a height of 4.5 cm above the support surface. Onto this, were placed the front legs of the animals. The presence of catalepsy was determined by measuring the time (in seconds) the animal remained in the posture placed. Later, this parameter was placed relatively, on a scale of rising values (0 to 5) through which, the degree of catalepsy determined in both control animals and in these subjected to treatment with the substances under test could be proportionately expressed.
For this study, product ST 1535 was used. Catalepsy was induced in the animals through the endoperitoneal administration of Haloperidol at a dose of 4 mg/Kg, two hours prior measuring catalepsy in the animals, the presence of which was determined according to the method described previously.
After scoring for catalepsy by Haloperidol, the animals were treated orally, with a dose equal to 10 mg/kg and 20 mg/kg of the product ST 1535. Then 60 minutes after treatment, the animals were subjected to further catalepsy scoring, which was carried out at the following times after ST 1535 administration: 120′, 240′, 300′.

The subject of a further assay is CD1 mice. Put plainly: Associated L-DOPA and A2a antagonists on Haloperidol-induced catalepsy. To be noted: ST 1535 1.25 or 2.5 mg/kg per os; L-DOPA 12.5 mg/kg; benserazide 3.12 mg/kg i.p.; Haloperidol 4 mg/kg i.p. As to the method:
For this study, product ST 1535 was used.
CD1 mice, divided into different experimental groups (n=10 per group) were used. All animals were subjected to treatment with Haloperidol (4 mg/kg, i.p.) two hours and 30′ prior to the catalepsy test, carried out according to the method described above.
Later, the animals were subjected to different types of treatment according to their original experimental group (see diagram). All catalepsy evaluations were carried out 2 hours and 30 minutes after Haloperidol treatment.
Haloperidol+ST 1535: ST 1535 2.5 mg/kg, per os, 75′ prior to testing;
Haloperidol+benserazide+L-Dopa: Benserazide 3.12 mg/kg i.p., 90′ prior to testing;
L-DOPA:. 12.5 mg/kg, 60′ prior to testing;
Aloperidol+benserazide+L-Dopa+ST 1535: Benserazide 3.12 mg/kg i.p., 90′ prior to testing;
L-DOPA 12.5 mg/kg, 60′ prior to testing;

The mark [1] stands for this setting: 2.5 mg/kg endoperitoneal, interval 15′-45′ from treatment.
Setting [2] is: 2.5 mg/kg endoperitoneal, interval 45′-60′ from treatment.
Setting [3] is: 5 mg/kg endoperitoneal, interval 15′-45′ from treatment.
Where [4] appears, read: 5 mg/kg endoperitoneal, interval 45′-60′ from treatment.
[5] abbreviates: 10 mg/kg endoperitoneal, interval 15′-45′ from treatment.
Where [6] appears, read: 10 mg/kg endoperitoneal, interval 45′-60′ from treatment.
Where [7] appears, read: 20 mg/kg endoperitoneal, interval 15′-45′ from treatment.
[8] abbreviates: 20 mg/kg endoperitoneal, interval 45′-60′ from treatment.

Some results are limits rather than exact numbers.

As for `CCCCc1nc(N)c2nc(-n3nccn3)n(C)c2n1` [ST 1535, 2-butyl-9-methyl-8-(2H-1,2,3-triazol-2-yl)-9H-purine-6-ylamine], the Horizontal activity in the assay on CD1 male mice (setting [1]) is listed as 5386 ± 505; with CD1 male mice (setting [2]) it was 1693 ± 266; with CD1 male mice (setting [3]) it was 7549 ± 508; in the assay on CD1 male mice (setting [4]) it was 2353 ± 199; with CD1 male mice (setting [5]) it was 7434 ± 526; in the assay with CD1 male mice (setting [6]), 2784 ± 345. Also, the Horizontal activity came to 10524 ± 670 with CD1 male mice (setting [7]) and 3321 ± 363 in the assay with CD1 male mice (setting [8]). For the same molecule, the Vertical activity with CD1 male mice (setting [1]) is 282 ± 79; with CD1 male mice (setting [2]) it was 68 ± 21; with CD1 male mice (setting [3]), 249 ± 41; in the assay with CD1 male mice (setting [4]) it was 76 ± 16; in the assay on CD1 male mice (setting [5]), 219 ± 64; in the assay with CD1 male mice (setting [6]) it was 71 ± 32. The results for the Vertical activity in the assay with CD1 male mice (setting [7]) and with CD1 male mice (setting [8]) were 486 ± 84 and 148 ± 36, respectively. Also, the “dose from which a significant increase of the spontaneous motor activity in mice is observed” value in the assay on CD1 male mice (endoperitoneal) was ≥ 5 mg/kg. Besides, the “effect on Haloperidol induced catalepsy (FIG. 3)” value in the assay on mice is reported as “reduces the appearance of catalepsy in mice”. The “combination with sub threshold dose of L-DOPA plus benserazide on Haloperidol-induced catalepsy (FIG. 4)” value with CD1 mice is “potentiates the anticataleptic activity of treatment with ineffective doses of L-DOPA and benserazide”.
